Results reported in PubChem BioAssay (NCI).
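Assay format: 96-well plates, 48-hour exposure. GI50 marks 50% less growth. TGI: concentration producing complete growth inhibition.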

What was measured:
Assay in all cases: DTP human tumour cell line panel, 48 h
MDA-MB-435 = tested on: MDA-MB-435
HCT-15 colon = tested on: HCT-15 colon
SF-539 CNS = tested on: SF-539 CNS
MDA-MB-231 breast = tested on: MDA-MB-231 breast
SNB-75 CNS = tested on: SNB-75 CNS
DU-145 prostate = tested on: DU-145 prostate
U251 CNS = tested on: U251 CNS
A498 renal = tested on: A498 renal
MCF7 breast = tested on: MCF7 breast
PC-3 prostate = tested on: PC-3 prostate
UACC-62 melanoma = tested on: UACC-62 melanoma
EKVX NSCLC = tested on: EKVX NSCLC
NCI/ADR-RES ovarian = tested on: NCI/ADR-RES ovarian
SF-295 CNS = tested on: SF-295 CNS
HCT-116 colon = tested on: HCT-116 colon
SW-620 colon = tested on: SW-620 colon
SNB-19 CNS = tested on: SNB-19 CNS
NCI-H226 lung = tested on: NCI-H226 lung
NCI-H23 lung = tested on: NCI-H23 lung
KM12 colon = tested on: KM12 colon
OVCAR-4 ovarian = tested on: OVCAR-4 ovarian
TK-10 renal = tested on: TK-10 renal
RPMI-8226 leukemia = tested on: RPMI-8226 leukemia
A549 NSCLC = tested on: A549 NSCLC
M14 melanoma = tested on: M14 melanoma
UACC-257 melanoma = tested on: UACC-257 melanoma
HL-60(TB) leukemia = tested on: HL-60(TB) leukemia
SF-268 CNS = tested on: SF-268 CNS
HOP-62 NSCLC = tested on: HOP-62 NSCLC
SK-MEL-28 melanoma = tested on: SK-MEL-28 melanoma
OVCAR-8 ovarian = tested on: OVCAR-8 ovarian
HOP-92 NSCLC = tested on: HOP-92 NSCLC
786-0 renal = tested on: 786-0 renal
NCI-H460 lung = tested on: NCI-H460 lung
SK-MEL-5 melanoma = tested on: SK-MEL-5 melanoma
BT-549 breast = tested on: BT-549 breast
HS 578T breast = tested on: HS 578T breast
OVCAR-3 ovarian = tested on: OVCAR-3 ovarian
HCC-2998 colon = tested on: HCC-2998 colon
MALME-3M melanoma = tested on: MALME-3M melanoma
ACHN renal = tested on: ACHN renal
HT29 colon = tested on: HT29 colon
RXF 393 renal = tested on: RXF 393 renal
OVCAR-5 ovarian = tested on: OVCAR-5 ovarian
CAKI-1 renal = tested on: CAKI-1 renal
COLO 205 colon = tested on: COLO 205 colon
SK-OV-3 ovarian = tested on: SK-OV-3 ovarian
SN12C renal = tested on: SN12C renal
T-47D breast = tested on: T-47D breast
LOX IMVI melanoma = tested on: LOX IMVI melanoma

SMILES: CN1CCN(c2ccc3c4c(cccc24)C(=O)N(CCN2CCN(CCCN4CCN(CCN5C(=O)c6cccc7c(N8CCN(C)CC8)ccc(c67)C5=O)CC4)CC2)C3=O)CC1
- GI50 (MDA-MB-435): 7.34 µM
- TGI (MDA-MB-435): 15.5 µM
- GI50 (HCT-15 colon): 4.08 µM
- TGI (HCT-15 colon): 11.3 µM
- GI50 (SF-539 CNS): 7.67 µM
- TGI (SF-539 CNS): 16.9 µM
- GI50 (MDA-MB-231 breast): 6.33 µM
- TGI (MDA-MB-231 breast): 13 µM
- GI50 (SNB-75 CNS): 7 µM
- TGI (SNB-75 CNS): 14.1 µM
- GI50 (DU-145 prostate): 7.19 µM
- TGI (DU-145 prostate): 17 µM
- GI50 (U251 CNS): 7.43 µM
- TGI (U251 CNS): 14.3 µM
- GI50 (A498 renal): 9.79 µM
- TGI (A498 renal): 17.4 µM
- GI50 (MCF7 breast): 5.06 µM
- TGI (MCF7 breast): 18.5 µM
- GI50 (PC-3 prostate): 5.14 µM
- TGI (PC-3 prostate): 11.6 µM
- GI50 (UACC-62 melanoma): 8.45 µM
- TGI (UACC-62 melanoma): 15.7 µM
- GI50 (EKVX NSCLC): 8.16 µM
- TGI (EKVX NSCLC): 17.3 µM
- GI50 (NCI/ADR-RES ovarian): 4.2 µM
- TGI (NCI/ADR-RES ovarian): 10.3 µM
- GI50 (SF-295 CNS): 5.75 µM
- TGI (SF-295 CNS): 13.7 µM
- GI50 (HCT-116 colon): 1230 nM
- TGI (HCT-116 colon): 5.79 µM
- GI50 (SW-620 colon): 1590 nM
- TGI (SW-620 colon): 50 µM
- GI50 (SNB-19 CNS): 7.03 µM
- TGI (SNB-19 CNS): 16.2 µM
- GI50 (NCI-H226 lung): 6 µM
- TGI (NCI-H226 lung): 14.4 µM
- GI50 (NCI-H23 lung): 7.08 µM
- TGI (NCI-H23 lung): 13.8 µM
- GI50 (KM12 colon): 4.34 µM
- TGI (KM12 colon): 14.1 µM
- GI50 (OVCAR-4 ovarian): 8.01 µM
- TGI (OVCAR-4 ovarian): 19.4 µM
- GI50 (TK-10 renal): 9.38 µM
- TGI (TK-10 renal): 21.1 µM
- GI50 (RPMI-8226 leukemia): 861 nM
- TGI (RPMI-8226 leukemia): 1890 nM
- GI50 (A549 NSCLC): 7.37 µM
- TGI (A549 NSCLC): 15 µM
- GI50 (M14 melanoma): 7.54 µM
- TGI (M14 melanoma): 14.2 µM
- GI50 (UACC-257 melanoma): 10.2 µM
- TGI (UACC-257 melanoma): 18.4 µM
- GI50 (HL-60(TB) leukemia): 1490 nM
- TGI (HL-60(TB) leukemia): 7.15 µM
- GI50 (SF-268 CNS): 4.57 µM
- TGI (SF-268 CNS): 47.5 µM
- GI50 (HOP-62 NSCLC): 1490 nM
- TGI (HOP-62 NSCLC): 6.82 µM
- GI50 (SK-MEL-28 melanoma): 9.37 µM
- TGI (SK-MEL-28 melanoma): 17.1 µM
- GI50 (OVCAR-8 ovarian): 2990 nM
- TGI (OVCAR-8 ovarian): 10.7 µM
- GI50 (HOP-92 NSCLC): 2390 nM
- TGI (HOP-92 NSCLC): 10.9 µM
- GI50 (786-0 renal): 1790 nM
- TGI (786-0 renal): 6.87 µM
- GI50 (NCI-H460 lung): 5.54 µM
- TGI (NCI-H460 lung): 33.5 µM
- GI50 (SK-MEL-5 melanoma): 8.59 µM
- TGI (SK-MEL-5 melanoma): 18.6 µM
- GI50 (BT-549 breast): 9.92 µM
- TGI (BT-549 breast): 19.7 µM
- GI50 (HS 578T breast): 10.6 µM
- TGI (HS 578T breast): 38.7 µM
- GI50 (OVCAR-3 ovarian): 8.2 µM
- TGI (OVCAR-3 ovarian): 15.8 µM
- GI50 (HCC-2998 colon): 738 nM
- TGI (HCC-2998 colon): 4.4 µM
- GI50 (MALME-3M melanoma): 8.36 µM
- TGI (MALME-3M melanoma): 19.8 µM
- GI50 (ACHN renal): 3.13 µM
- TGI (ACHN renal): 9.72 µM
- GI50 (HT29 colon): 1130 nM
- TGI (HT29 colon): 4.31 µM
- GI50 (RXF 393 renal): 5.4 µM
- TGI (RXF 393 renal): 12 µM
- GI50 (OVCAR-5 ovarian): 5.79 µM
- TGI (OVCAR-5 ovarian): 11.9 µM
- GI50 (CAKI-1 renal): 8.21 µM
- TGI (CAKI-1 renal): 16.8 µM
- GI50 (COLO 205 colon): 5.6 µM
- TGI (COLO 205 colon): 21.8 µM
- GI50 (SK-OV-3 ovarian): 9.49 µM
- TGI (SK-OV-3 ovarian): 18.3 µM
- GI50 (SN12C renal): 4.02 µM
- TGI (SN12C renal): 11.2 µM
- GI50 (T-47D breast): 19.8 µM
- TGI (T-47D breast): 50 µM
- GI50 (LOX IMVI melanoma): 4.56 µM
- TGI (LOX IMVI melanoma): 11.6 µM
